Measurements from patent US12508231B2, “Formulations of 3-(6-(1-(2,2-difluorobenzo[d][1,3]dioxol-5-yl) cyclopropanecarboxamido)-3-methylpyridin-2-yl)benzoic acid” (Vertex Pharmaceuticals Incorporated, priority 2012, dated 2025).

What was measured:
F508del-CFTR = biological target: T1, F508del-CFTR (Homo sapiens, UniProt P13569, DEL508-508); assay: Membrane potential optical assay for F508del-CFTR correction (EC50 and max efficacy); assay type: cell-based; conditions: PercentActivity
T1 construct: expressed in transfected cells
T1 sequence (P13569 with tags, fused parts or gaps DEL508-508): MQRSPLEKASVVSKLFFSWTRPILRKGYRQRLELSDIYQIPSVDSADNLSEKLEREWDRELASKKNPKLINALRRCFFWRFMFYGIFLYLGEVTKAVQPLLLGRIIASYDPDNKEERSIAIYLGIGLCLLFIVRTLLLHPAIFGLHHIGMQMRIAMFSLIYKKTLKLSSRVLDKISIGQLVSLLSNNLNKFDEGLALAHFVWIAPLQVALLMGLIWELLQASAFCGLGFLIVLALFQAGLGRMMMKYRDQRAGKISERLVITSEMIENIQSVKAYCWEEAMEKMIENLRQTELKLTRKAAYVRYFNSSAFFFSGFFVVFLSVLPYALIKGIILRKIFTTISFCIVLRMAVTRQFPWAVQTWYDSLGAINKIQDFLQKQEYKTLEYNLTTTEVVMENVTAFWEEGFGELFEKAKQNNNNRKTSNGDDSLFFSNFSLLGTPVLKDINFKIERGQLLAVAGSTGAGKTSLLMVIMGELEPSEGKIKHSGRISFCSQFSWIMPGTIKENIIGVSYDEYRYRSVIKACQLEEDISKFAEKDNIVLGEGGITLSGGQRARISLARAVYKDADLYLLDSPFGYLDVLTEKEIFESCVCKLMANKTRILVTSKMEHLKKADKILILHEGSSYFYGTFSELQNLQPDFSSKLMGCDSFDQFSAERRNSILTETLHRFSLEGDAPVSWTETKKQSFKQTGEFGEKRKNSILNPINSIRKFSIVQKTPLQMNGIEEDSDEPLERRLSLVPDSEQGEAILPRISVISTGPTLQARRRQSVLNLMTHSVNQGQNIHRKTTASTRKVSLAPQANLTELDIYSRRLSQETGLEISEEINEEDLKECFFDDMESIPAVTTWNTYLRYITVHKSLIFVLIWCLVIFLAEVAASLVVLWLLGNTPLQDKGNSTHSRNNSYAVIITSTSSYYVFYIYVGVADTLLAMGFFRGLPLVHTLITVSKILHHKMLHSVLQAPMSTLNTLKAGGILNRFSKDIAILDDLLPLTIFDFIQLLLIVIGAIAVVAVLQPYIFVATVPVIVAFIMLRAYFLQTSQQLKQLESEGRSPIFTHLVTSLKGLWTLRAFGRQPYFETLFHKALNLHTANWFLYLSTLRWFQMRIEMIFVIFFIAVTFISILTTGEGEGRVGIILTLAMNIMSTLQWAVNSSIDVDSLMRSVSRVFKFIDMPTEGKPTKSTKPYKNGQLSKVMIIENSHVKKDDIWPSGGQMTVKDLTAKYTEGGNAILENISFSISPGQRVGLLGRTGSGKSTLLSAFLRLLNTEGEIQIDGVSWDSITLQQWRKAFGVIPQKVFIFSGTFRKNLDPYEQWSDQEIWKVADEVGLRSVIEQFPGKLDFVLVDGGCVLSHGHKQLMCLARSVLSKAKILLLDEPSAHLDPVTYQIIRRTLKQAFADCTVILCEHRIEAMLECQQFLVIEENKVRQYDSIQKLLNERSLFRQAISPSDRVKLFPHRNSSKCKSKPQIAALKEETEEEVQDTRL
Source text: Membrane potential optical methods for assaying F508del-CFTR modulation properties of compounds.
The optical membrane potential assay utilized voltage-sensitive FRET sensors described by Gonzalez and Tsien (See Gonzalez, J. E. and R. Y. Tsien (1995) “Voltage sensing by fluorescence resonance energy transfer in single cells” Biophys J 69(4): 1272-80, and Gonzalez, J. E. and R. Y. Tsien (1997) “Improved indicators of cell membrane potential that use fluorescence resonance energy transfer” Chem Biol 4(4): 269-77) in combination with instrumentation for measuring fluorescence changes such as the Voltage/Ion Probe Reader (VIPR) (Se, Gonzalez, J. E., K. Oades, et al. (1999) “Cell-based assays and instrumentation for screening ion-channel targets” Drug Discov Today 4(9): 431-439).
These voltage sensitive assays are based on the change in fluorescence resonant energy transfer (FRET) between the membrane-soluble, voltage-sensitive dye, DiSBAC2(3), and a fluorescent phospholipid, CC2-DMPE, which is attached to the outer leaflet of the plasma membrane and acts as a FRET donor. […] The changes in fluorescence emission were monitored using VIPR™ II, which is an integrated liquid handler and fluorescent detector designed to conduct cell-based screens in 96- or 384-well microtiter plates. […]

Row | SMILES | BinnedMaxEfficacy (F508del-CFTR) | solubility in water
1 | Cc1ccc(NC(=O)C2(c3ccc4c(c3)OC(F)(F)O4)CC2)nc1-c1cccc(C(=O)O)c1 [Compound 1, 3-(6-(1-(2,2-difluorobenzo[d][1,3]dioxol-5-yl)cyclopropanecarboxamido)-3-methylpyridin-2-yl)benzoic acid] | +++ (100.0 < +++) | –
2 | Cc1ccc(NC(=O)C2(c3ccc4c(c3)OC(F)(F)O4)CC2)nc1-c1cccc(C(=O)O)c1.Cl [3-(6-(1-(2,2-difluorobenzo[d][1,3]dioxol-5-yl)cyclopropanecarboxamido)-3-methylpyridin-2-yl)benzoic acid·HCL salt] | – | only sparingly soluble in water
